Measured values taken from article PMC13242511, “Disrupting Notch signalling by a small molecule inhibiting dihydroorotate dehydrogenase activity” (Scientific Reports, 2026).
Where “and” joins values, the source holds several entries; their conditions need not be identical. Equal values may be shown once.

Columns and labels:
Type in all cases: cell-based
[1] = system: MDA-MB-468 cells; assay: Three dose response gene expression analysis (qRT-PCR); conditions: 0.1, 1 and 10 µM, 24 h
Procedure: Total RNA from cell lines was isolated using the RNeasy Mini kit (cat #74104, Qiagen), according to the manufacturer’s instructions. qRT-PCR was performed as described elsewhere[51] with some minor modifications: RNA was reverse transcribed to cDNA using iScript Reverse Transcription Supermix (cat # 1708841, Bio-rad). cDNA was then diluted 1:5 in nuclease free H20. qRT-PCR was performed on a C1000 Touch thermal cycler (Bio-rad) and gene expression was detected with SsoAdvanced Universal SYBR Green Supermix (cat # 1725274, Bio-rad). Gene expression was determined by normalizing to GAPDH mRNA expression levels and fold expression change was calculated using the ΔΔCT method (ΔΔCT = ΔCt sample − Δct control). Primers used in qPCR are shown in Supplemental Table 9.
Adherent breast cancer cells were seeded in 24-well cell culture plates (ThermoFisher, Nunc, Delta surface, cat #144530) and T-ALL cells growing in suspension (Jurkat, RPMI-8402) were seeded in non-adherent 24-well plates (ThermoFisher, Nunc, cat […]). 60.000 cells were seeded and treated with 0.1, 1 and 10 µM of each compound. […] Cells were harvested 24 h post treatment and RNA isolation and gene expression analysis (qRT-PCR) was performed as described above.

[2] = system: MDA-MB-231 cells; assay: Immunocytochemistry of NOTCH1, nuclei and giant cell count; set-up: Average Size nuclei / AVG Average Size nuclei: unit not given here; conditions: for fraction of cells with large nuclei / overall level of NOTCH1 (ICC) / AVG Giant cells/ total nucl (%) / AVG Average Size nuclei / Average Size nuclei / Count (nuclei per field) / Giant cells /field / Giant cells/ total nucl (%): MDA-MB-231, 2 µM; for fraction of cells with large nuclei / overall level of NOTCH1 (ICC): 24 h; for fraction of cells with large nuclei: compared to DMSO, Fig. 8D; for overall level of NOTCH1 (ICC): Fig. 8A; for Average Size nuclei / Count (nuclei per field) / Giant cells /field / Giant cells/ total nucl (%): single images; for cell morphology: overview in comparison to compound C, Supplemental Fig. 9
Procedure: 20,000 MDA-MB-231 cells were seeded on cover-slides (BD Bioscience), allowed to attach and treated with 2 µM compound for 24 h and 72 h upon reaching 80% confluence. For quantification of NOTCH1 signals and to monitor morphological changes immunocytochemistry staining to localize NOTCH1 was carried out as described above for C2C12 cells. Cellular morphology was visualized with Phalloidin (Thermofisher, cat # A22287), used at 1:2000 dilution and a NOTCH1 antibody used at 1:100 dilution (Cell signalling, cat #D6F11). Images were recorded using a Zeiss LSM 700 laser scanning microscope with a 40 × objective. Identical channel configuration and detector gain settings were used for quantification of fluorescence signals and a minimum of four images were recorded per condition. Secondary antibody control background signals were averaged and subtracted from each image and the same brightness and contrast adjustments were applied to all images before conducting histogram-based quantification of NOTCH1 signals. A 10 × objective was used for assessing morphological changes and a minimum of four and three images at 24 h and 72 h, respectively were recorded for quantification of nuclei count, size and number of giant cells. Images were processed using Fiji (ImageJ) software and objects were separated from background using Otsu thresholding until all nuclei were detectable. Nuclei objects were filled and nuclei particles were measured using size exclusion and circularity filter settings, 10-infinity (size) and 0,1–0,5 (circularity). Overlay images of nuclear stain and Phalloidin were used to manually count and annotate giant cells using Fiji’s cell counter.

[3] = system: NOTCH1; assay: Cycloheximide chase experiment (half-life of cleaved NOTCH1); set-up: key to NOTCH1 (TMICD), DMSO as reference: western blot band intensity normalised to beta-Actin, relative to DMSO; conditions: for NOTCH1/ (TMICD) band intensity: 5 µM
Procedure: HEK293T Notch reporter cells (clone #A1-11) were grown to 80% confluence, detached and counted. 50,000 cells were then seeded in each well of a 24-well tissue culture plate (Sarstedt, cat # 83.3924), cultivated to approximately 85% confluence and treated with 5 µM of the respective compound and 50 µg/ml Cycloheximide (CHX) solution (Sigma-Aldrich, cat #C4859-1ML). Each well was then incubated with 500 µl of compound and CHX solution and compound and CHX solution were added after the indicated intervals to another well for a total time of eight hours. Next, medium was aspirated off and cells were lysed in RIPA buffer (Thermofisher, cat #89900) containing Protease and Phosphatase inhibitors (Thermofisher, cat #78442) for 30 min on ice. Lysates were thoroughly vortexed, centrifugated for 10 min at > 13,000×g and supernatant was transferred to a fresh cup and stored at -80 °C.
Cells were washed in ice-cold PBS and incubated for 30 min on ice with RIPA cell lysis buffer (Thermofisher, cat #89900) containing protease and phosphatase inhibitors (Thermofisher, cat #78442), scraped off and homogenized using a 25G syringe, and subsequently centrifugated for 10 min at > 13,000xg. […] After electrophoresis, gels were placed directly onto a TransBlot Turbo PVDF or nitrocellulose membrane (Bio-rad, cat #1704157 and cat #1704159) and transferred using the “HIGH MW” protocol (Bio-Rad). Subsequently, membranes were blocked for 1 h at room temperature using Clear Milk Blocking Buffer (ThermoFisher, cat #37587) supplemented with 0.1% Tween20 (Sigma-Aldrich, cat #P1379). Detection of antibody binding was performed by using Clarity Western ECL-Substrate (Bio-rad, cat #1705060S). Beta-Actin protein signals were used as a loading control. Western blot membranes were in some experiments stripped after development (indicated in the figure in each respective case) by washing the membranes twice for 10 min in PBS, followed by incubation in membranes in western blot stripping buffer (ThermoFisher, cat #21059) for 30 min at room temperature and gentle agitation. Stripped membranes were washed twice with PBS and incubated for 30 min in blocking buffer before incubation with primary antibody. A list of all antibodies used in this study is provided in Supplemental Table 6. Uncropped western blot images are provided in […]. Protein expression levels of western blot bands were quantified using Fiji (V.2.16) with beta-Actin signals for normalisation (Supplemental Table 8). Uncropped western blot images are provided in Supplemental Fig. 10.

[4] = system: HES-1 in JURKAT cells; assay: Western blot analysis of HES1 protein; conditions: 2 µM, 48 h, Fig. 8C
Procedure: (§1) Cells were washed in ice-cold PBS and incubated for 30 min on ice with RIPA cell lysis buffer (Thermofisher, cat #89900) containing protease and phosphatase inhibitors (Thermofisher, cat #78442), scraped off and homogenized using a 25G syringe, and subsequently centrifugated for 10 min at > 13,000xg. […] After electrophoresis, gels were placed directly onto a TransBlot Turbo PVDF or nitrocellulose membrane (Bio-rad, cat #1704157 and cat #1704159) and transferred using the “HIGH MW” protocol (Bio-Rad). Subsequently, membranes were blocked for 1 h at room temperature using Clear Milk Blocking Buffer (ThermoFisher, cat #37587) supplemented with 0.1% Tween20 (Sigma-Aldrich, cat #P1379). Detection of antibody binding was performed by using Clarity Western ECL-Substrate (Bio-rad, cat #1705060S). Beta-Actin protein signals were used as a loading control. Western blot membranes were in some experiments stripped after development (indicated in the figure in each respective case) by washing the membranes twice for 10 min in PBS, followed by incubation in membranes in western blot stripping buffer (ThermoFisher, cat #21059) for 30 min at room temperature and gentle agitation. […] Protein expression levels of western blot bands were quantified using Fiji (V.2.16) with beta-Actin signals for normalisation (Supplemental Table 8). […]

[5] = system: HES1 in MDA-MB-231 cells; assay: Western blot analysis of HES1 protein; conditions: MDA-MB-231, 2 µM, 48 h; Fig. 8C
Procedure: as §1

[6] = timepoint 0 (hours after cycloheximide)
[7] = timepoint 1 (hours after cycloheximide)
[8] = timepoint 2 (hours after cycloheximide)
[9] = timepoint 4 (hours after cycloheximide)
[10] = timepoint 6 (hours after cycloheximide)
[11] = timepoint 8 (hours after cycloheximide)

| SMILES | fraction of cells with large nuclei [2] | overall level of NOTCH1 (ICC) [2] | AVG Giant cells/ total nucl (%) ([2]; 24h treatment, DMSO 1.4) | AVG Average Size nuclei ([2]; 24h treatment, DMSO 184.3) | AVG Giant cells/ total nucl (%) ([2]; 72h treatment, DMSO 0.7) | AVG Average Size nuclei ([2]; 72h treatment, DMSO 184.1) | cell morphology [2] | NOTCH1/ (TMICD) band intensity [3, 6] | NOTCH1 (TMICD) normalized to beta-Actin (used for plots) ([3]; timepoint 0, 5 µM) | NOTCH1 (TMICD), DMSO as reference ([3]; timepoint 0, 5 µM) | NOTCH1/ (TMICD) band intensity [3, 7] | NOTCH1 (TMICD) normalized to beta-Actin (used for plots) ([3]; timepoint 1, 5 µM) | NOTCH1 (TMICD), DMSO as reference ([3]; timepoint 1, 5 µM) | NOTCH1/ (TMICD) band intensity [3, 8] | NOTCH1 (TMICD) normalized to beta-Actin (used for plots) ([3]; timepoint 2, 5 µM) | NOTCH1 (TMICD), DMSO as reference ([3]; timepoint 2, 5 µM) | NOTCH1/ (TMICD) band intensity [3, 9] | NOTCH1 (TMICD) normalized to beta-Actin (used for plots) ([3]; timepoint 4, 5 µM) | NOTCH1 (TMICD), DMSO as reference ([3]; timepoint 4, 5 µM) | NOTCH1/ (TMICD) band intensity [3, 10] | also measured |
| --- | --- | --- | --- | --- | --- | --- | --- | --- | --- | --- | --- | --- | --- | --- | --- | --- | --- | --- | --- | --- | --- |
| CC(C)(C)c1ccc(Oc2ccc(N)cn2)cc1 [CB-103, reference compound] |  |  |  |  |  |  |  |  |  |  |  |  |  |  |  |  |  |  |  |  | HES4 expression [1]: upregulation |
| CC(C)(C(=O)NCC(F)(F)C(F)(F)F)C(=O)N[C@@H]1C(=O)Nc2ccccc2-c2ccccc21 [RO4929097, reference compound] | smaller increase | trend towards reduced levels | 1.7 | 170.6 | 1.2 | 205.4 | moderate effect | 20583.6 | 1.3 | 1.0 | 14235.7 | 0.8 | 0.6 | 11993.7 | 0.6 | 0.5 | 14001.0 | 0.8 | 0.6 | 9107.8 | c-MYC expression [1]: did not reduce; Average Size nuclei ([2]; 24h treatment, listed as GSI): 168.5 and 151.9 and 180.3 and 181.9; Count (nuclei per field) ([2]; 24h treatment, listed as GSI): 1431.0 and 1167.0 and 1371.0 and 1390.0; Giant cells /field ([2]; 24h treatment, listed as GSI): 23.0 and 26.0 and 17.0 and 24.0; Giant cells/ total nucl (%) ([2]; 24h treatment, listed as GSI): 1.6% and 2.2% and 1.2% and 1.7%; Average Size nuclei ([2]; 72h treatment, listed as GSI): 177.5 and 237.7 and 201.1; Count (nuclei per field) ([2]; 72h treatment, listed as GSI): 508.0 and 335.0 and 447.0; Giant cells /field ([2]; 72h treatment, listed as GSI): 4.0 and 6.0 and 5.0; Giant cells/ total nucl (%) ([2]; 72h treatment, listed as GSI): 0.8% and 1.8% and 1.1%; protein stability of NOTCH1 (in words) ([3]; cycloheximide chase, Supplemental Fig. 8B): enhanced protein stability; NOTCH1 (TMICD) normalized to beta-Actin (used for plots) ([3]; timepoint 6, 5 µM): 0.8; NOTCH1 (TMICD), DMSO as reference ([3]; timepoint 6, 5 µM): 0.6; NOTCH1/ (TMICD) band intensity [3, 11]: 9737.6; NOTCH1 (TMICD) normalized to beta-Actin (used for plots) ([3]; timepoint 8, 5 µM): 0.7; NOTCH1 (TMICD), DMSO as reference ([3]; timepoint 8, 5 µM): 0.53 |
| COc1cccc(CNc2ccc(N3CCCCC3)cc2)c1OCc1cccs1 [compound C] | increased fraction | not affected | 2.4 | 211.1 | 3.8 | 267.6 | strongest effect | 11149.0 | 0.8 | 1.0 | 9563.6 | 0.7 | 0.9 | 5022.2 | 0.4 | 0.5 | 5169.6 | 0.347 | 0.442 | 6218.3 | Average Size nuclei ([2]; 24h treatment): 215.8 and 220.5 and 221.4 and 186.7; Count (nuclei per field) ([2]; 24h treatment): 1118.0 and 1274.0 and 861.0 and 1213.0; Giant cells /field ([2]; 24h treatment): 26.0 and 28.0 and 22.0 and 30.0; Giant cells/ total nucl (%) ([2]; 24h treatment): 2.3% and 2.2% and 2.6% and 2.5%; Average Size nuclei ([2]; 72h treatment): 254.0 and 270.2 and 244.9 and 301.2; Count (nuclei per field) ([2]; 72h treatment): 251.0 and 246.0 and 215.0 and 208.0; Giant cells /field ([2]; 72h treatment): 9.0 and 8.0 and 10.0; Giant cells/ total nucl (%) ([2]; 72h treatment): 3.6% and 3.3% and 3.7% and 4.8%; level of HES-1 protein [4]: reduced; HES1 protein levels [5]: reduction in HES1 levels; NOTCH1 (TMICD) normalized to beta-Actin (used for plots) ([3]; timepoint 6, 5 µM): 0.362; NOTCH1 (TMICD), DMSO as reference ([3]; timepoint 6, 5 µM): 0.46; NOTCH1/ (TMICD) band intensity [3, 11]: 4511.9; NOTCH1 (TMICD) normalized to beta-Actin (used for plots) ([3]; timepoint 8, 5 µM): 0.277; NOTCH1 (TMICD), DMSO as reference ([3]; timepoint 8, 5 µM): 0.352 |
